Data reported in patent US8716475B2, “2-aminopyrimidine modulators of the histamine H4 receptor” (Janssen Pharmaceutica NV, priority 2007, dated 2014).
pKi: −log10 of the molar value.

Target: T1, human H4 receptor (Homo sapiens, UniProt Q9H3N8)
T1 construct: expressed in transfected cells
Test: Binding Assay on Recombinant Human Histamine H4 Receptor
Conditions: Table 1; [3H] histamine competition binding, membranes of SK-N-MC cells transfected with human H4 receptor; average of results
Experimental: Binding Assay on Recombinant Human Histamine H4 Receptor.
Cell pellets from SK-N-MC cells stably or transiently transfected with human H4 receptor were used for the binding assays. Cell pellets were homogenized in 50 mM Tris/5 mM EDTA buffer and supernatants from an 800g spin were collected and recentrifuged at 30,000g for 30 min. Pellets were rehomogenized in 50 mM Tris/5 mM EDTA buffer. […] Compounds were tested in free base, hydrochloride salt, or trifluoroacetic acid form. Nonspecific binding was defined with 100 μM cold histamine. […] Membranes were harvested by rapid filtration using the 96 well Brandel system or a cell harvester using a Whatman GF/C filter or filter plates treated with 0.5% polyethylenimine (PEI), and washed 4 times with ice-cold 50 mM Tris/5 mM EDTA buffer. Filters were then dried, mixed with scintillant and radioactive counts were determined. […] Data marked with an asterisk (*) were obtained by the cell harvester method. Where activity is shown as greater than (>) a particular value, the value is the highest concentration tested.

Row | pKi | Structure (SMILES)
1 | 6.45 | CN[C@@H]1CCN(c2nc(N)nc(C)c2C)C1 [Example 28, (R)-4,5-Dimethyl-6-(3-methylamino-pyrrolidin-1-yl)-pyrimidin-2-ylamine]
2 | 7.52 | Nc1nc(Cc2ccccc2)cc(N2CCNCC2)n1 [Example 62, 4-Benzyl-6-piperazin-1-yl-pyrimidin-2-ylamine]
3 | 7.51 | CN[C@@H]1CCN(c2cc(C3CCOCC3)nc(N)n2)C1 [Example 60, (R)-4-(3-Methylamino-pyrrolidin-1-yl)-6-(tetrahydro-pyran-4-yl)-pyrimidin-2-ylamine]
4 | 6.99 | Nc1nc(C2CCC2)cc(N2CCC[C@@H](N)C2)n1 [Example 45, (R)-4-(3-Amino-piperidin-1-yl)-6-cyclobutyl-pyrimidin-2-ylamine]
5 | 7.54 | CN1CCN(c2cc(C3CCOCC3)nc(N)n2)CC1 [Example 59, 4-(4-Methyl-piperazin-1-yl)-6-(tetrahydro-pyran-4-yl)-pyrimidin-2-ylamine]
6 | 7.39 | Nc1nc(C2CCOCC2)cc(N2CCNCC2)n1 [Example 58, 4-piperazin-1-yl-6-(tetrahydro-pyran-4-yl)-pyrimidin-2-ylamine]

Row | Structure (SMILES) | pKi
7 | CCc1cc(N2C[C@H]3CNC[C@H]3C2)nc(N)n1 [Example 38, 4-Ethyl-6-(cis-hexahydro-pyrrolo[3,4-c]pyrrol-2-yl)-pyrimidin-2-ylamine] | 6.25
8 | CN1CCN(c2cc(C3CC3)nc(N)n2)CC1 [Example 40, 4-Cyclopropyl-6-(4-methyl-piperazin-1-yl)-pyrimidin-2-ylamine] | 8.10
9 | Nc1nc(C2CCC2)cc(N2CC3CCNC3C2)n1 (stereo not drawn) [Example 47, 4-Cyclobutyl-6-(cis-hexahydro-pyrrolo[3,4-b]pyrrol-5-yl)-pyrimidin-2-ylamine] | 7.96
10 | CC(C)c1cc(N2C[C@H]3CCN[C@H]3C2)nc(N)n1 [Example 17, (R,R)-4-(Hexahydro-pyrrolo[3,4-b]pyrrol-5-yl)-6-isopropyl-pyrimidin-2-ylamine] | 7.23
11 | Cc1nc(N)nc(N2CC3CCNC3C2)c1C (stereo not drawn) [Example 29, 4-(cis-Hexahydro-pyrrolo[3,4-b]pyrrol-5-yl)-5,6-dimethyl-pyrimidin-2-ylamine] | < 5.00

Same assay, conditions: Table 2; [3H] histamine competition binding, membranes of SK-N-MC cells transfected with human H4 receptor; average of results

Row | pKi | Structure (SMILES)
12 | 7.92 | Nc1nc(Cc2ccsc2)cc(N2CC[C@@H](N)C2)n1 [Example 210, (R)-4-(3-Amino-pyrrolidin-1-yl)-6-thiophen-3-ylmethyl-pyrimidin-2-ylamine]
13 | 8.70 | CCCCc1cc(N2CC[C@@H](NC)C2)nc(N)n1 [Example 137, (R)-4-Butyl-6-(3-methylamino-pyrrolidin-1-yl)-pyrimidin-2-ylamine]
14 | 7.10 | CCCCc1nc(N)nc(NCCN)c1OC [Example 110, N^4-(2-Amino-ethyl)-6-butyl-5-methoxy-pyrimidine-2,4-diamine]
15 | 8.70 | Nc1nc(Cc2ccsc2)cc(N2CCNCC2)n1 [Example 209, 4-piperazin-1-yl-6-thiophen-3-ylmethyl-pyrimidin-2-ylamine]
16 | 6.05 | COCc1cc(NCCN)nc(N)n1 [Example 219, N^4-(2-Amino-ethyl)-6-methoxymethyl-pyrimidine-2,4-diamine]
17 | 7.66 | CCOCc1cc(N2CC[C@@H](N)C2)nc(N)n1 [Example 242, (R)-Ethoxymethyl-6-(3-amino-pyrrolidin-1-yl)-pyrimidin-2-ylamine]
18 | 7.34 | NCCNc1cc(C2Cc3ccccc3C2)nc(N)n1 [Example 168, N^4-(2-Amino-ethyl)-6-indan-2-yl-pyrimidine-2,4-diamine]
19 | 6.55 | CC(C)c1cc(N(C)CCN)nc(N)n1 [Example 92, N^4-(2-Amino-ethyl)-6-isopropyl-N^4-methyl-pyrimidine-2,4-diamine]
20 | 8.22 | CN(CCN)c1cc(C2CCOC2)nc(N)n1 (centres unmarked) [Example 189, N^4-(2-Amino-ethyl)-N^4-methyl-6-(tetrahydro-furan-3-yl)-pyrimidine-2,4-diamine]
21 | 6.74 | CCCCc1nc(N)nc(N2CCCNCC2)c1OC [Example 102, 4-Butyl-6-[1,4]diazepan-1-yl-5-methoxy-pyrimidin-2-ylamine]
22 | 8.40 | CCCCc1cc(N2CC[C@@H](N)C2)nc(N)n1 [Example 135, (R)-4-(3-Amino-pyrrolidin-1-yl)-6-butyl-pyrimidin-2-ylamine]
23 | 5.37 | Cc1nc(N)nc(N(C)CCN)c1F [Example 203, N^4-(2-Amino-ethyl)-5-fluoro-6,N^4-dimethyl-pyrimidine-2,4-diamine]
24 | 6.29 | CN[C@@H]1CCN(c2nc(N)nc(C)c2F)C1 [Example 202, (R)-5-Fluoro-4-methyl-6-(3-methylamino-pyrrolidin-1-yl)-pyrimidin-2-ylamine]
25 | 8.05 | Nc1nc(CCc2ccccc2)cc(N2CC[C@@H](N)C2)n1 [Example 178, (R)-4-(3-Amino-pyrrolidin-1-yl)-6-phenethyl-pyrimidin-2-ylamine]
26 | 6.98 | CCCCc1nc(N)nc(N2CC[C@H](NC)C2)c1OC [Example 107, (S)-4-Butyl-5-methoxy-6-(3-methylamino-pyrrolidin-1-yl)-pyrimidin-2-ylamine]
27 | 6.67 | CN[C@@H]1CCN(c2nc(N)nc3c2COCC3)C1 [Example 99, (R)-4-(3-Methylamino-pyrrolidin-1-yl)-7,8-dihydro-5H-pyrano[4,3-d]pyrimidin-2-ylamine]
28 | 7.07 | CCc1cc(N2CC[C@H](NC)C2)nc(N)n1 [Example 150, (S)-4-Ethyl-6-(3-methylamino-pyrrolidin-1-yl)-pyrimidin-2-ylamine]
29 | 7.09 | CN1CCN(c2cc(Cc3ccncc3)nc(N)n2)CC1 [Example 206, 4-(4-Methyl-piperazin-1-yl)-6-pyridin-4-ylmethyl-pyrimidin-2-ylamine]
30 | 6.53 | Nc1nc2c(c(N3CC[C@@H](N)C3)n1)COCC2 [Example 98, (R)-4-(3-Amino-pyrrolidin-1-yl)-7,8-dihydro-5H-pyrano[4,3-d]pyrimidin-2-ylamine]
31 | 6.87 | COc1c(C2CCCC2)nc(N)nc1N1CC[C@@H](N)C1 [Example 113, (R)-4-(3-Amino-pyrrolidin-1-yl)-6-cyclopentyl-5-methoxy-pyrimidin-2-ylamine]
32 | 7.82 | COCc1cc(N2CCN(C)CC2)nc(N)n1 [Example 223, 4-Methoxymethyl-6-(4-methyl-piperazin-1-yl)-pyrimidin-2-ylamine]
33 | 8.05 | CC(C)(C)c1cc(N2CC[C@@H](N)C2)nc(N)n1 [Example 127, (R)-4-(3-Amino-pyrrolidin-1-yl)-6-tert-butyl-pyrimidin-2-ylamine]
34 | 7.51 | Nc1nc(C2CCOC2)cc(N2CCNCC2)n1 (single isomer, unassigned; (-)) [Example 193, (−)-4-piperazin-1-yl-6-(tetrahydro-furan-3-yl)-pyrimidin-2-ylamine]
35 | 8.52 | Nc1nc(CCc2ccccc2)cc(N2CCNCC2)n1 [Example 247, 4-Phenethyl-6-piperazin-1-yl-pyrimidin-2-ylamine]
36 | 7.37 | CN[C@@H]1CCN(c2cc(COC)nc(N)n2)C1 [Example 221, (R)-4-Methoxymethyl-6-(3-methylamino-pyrrolidin-1-yl)-pyrimidin-2-ylamine]
37 | 8.10 | CN1CCN(c2cc(C3CC3c3ccccc3)nc(N)n2)CC1 (stereo not drawn) [Example 158, 4-(4-Methyl-piperazin-1-yl)-6-(trans-2-phenyl-cyclopropyl)-pyrimidin-2-ylamine]
38 | 8.22 | Nc1nc(C2CCCC2)cc(N2CC(N)C2)n1 [Example 85, 4-(3-Amino-azetidin-1-yl)-6-cyclopentyl-pyrimidin-2-ylamine]
39 | 8.40 | CN1CCN(c2cc(Cc3cccs3)nc(N)n2)CC1 [Example 213, 4-(4-Methyl-piperazin-1-yl)-6-thiophen-2-ylmethyl-pyrimidin-2-ylamine]
40 | 8.70 | CN1CCN(c2cc(Cc3ccsc3)nc(N)n2)CC1 [Example 207, 4-(4-Methyl-piperazin-1-yl)-6-thiophen-3-ylmethyl-pyrimidin-2-ylamine]
41 | 7.77 | CN1CCN(c2cc(CC3CCCO3)nc(N)n2)CC1 (centres unmarked) [Example 227, 4-(4-Methyl-piperazin-1-yl)-6-(tetrahydro-furan-2-ylmethyl)-pyrimidin-2-ylamine]

Row | Structure (SMILES) | pKi
42 | CN1C[C@@H]2CN(c3cc(CC4CCCO4)nc(N)n3)C[C@@H]2C1 (stereo partly drawn) [Example 229, 4-(cis-5-Methyl-hexahydro-pyrrolo[3,4-c]pyrrol-2-yl)-6-(tetrahydro-furan-2-ylmethyl)-pyrimidin-2-ylamine] | 6.44
43 | Nc1nc(C2CC2)cc(N2CCNCC2)n1 [Example 121, 4-Cyclopropyl-6-piperazin-1-yl-pyrimidin-2-ylamine] | 8.52
44 | CCCCc1cc(N2CCN(C)CC2)nc(N)n1 [Example 136, 4-Butyl-6-(4-methyl-piperazin-1-yl)-pyrimidin-2-ylamine] | 9.00
45 | Cc1nc(N)nc(N2CCNCC2)c1F [Example 201, 5-Fluoro-4-methyl-6-piperazin-1-yl-pyrimidin-2-ylamine] | 6.41
46 | Nc1nc2c(c(N3C[C@H]4CCCN[C@H]4C3)n1)COCC2 [Example 97, (R,R)-4-(Octahydro-pyrrolo[3,4-b]pyridin-6-yl)-7,8-dihydro-5H-pyrano[4,3-d]pyrimidin-2-ylamine] | 7.70
47 | CCCCc1cc(N2C[C@H]3CN(C)C[C@H]3C2)nc(N)n1 [Example 139, 4-Butyl-6-(cis-5-methyl-hexahydro-pyrrolo[3,4-c]pyrrol-2-yl)-pyrimidin-2-ylamine] | 6.86
